Assay results published in patent US7745463B2, “Alkene piperidine derivatives as antiviral agents” (priority 2006, dated 2010).

Tested on: HIV-1 single-round infectious reporter virus
Experiment: Single-round infectious HIV-1 reporter virus (luciferase) infection of HeLa CD4 cells
Format: cell-based
Conditions: Human immunodeficiency virus 1, HeLa, 72 h, read-out: EC50 Group from Table 1
Procedure: • Virus production—Human embryonic Kidney cell line, 293T, was propagated in Dulbecco's Modified Eagle Medium (Invitrogen, Carlsbad, Calif.) containing 10% fetal Bovine serum (FBS, Sigma, St. Louis, Mo.). • Virus infection-Human epithelial cell line, HeLa, expressing the HIV-1 receptor CD4 was propagated in Dulbecco's Modified Eagle Medium (Invitrogen, Carlsbad, Calif.) containing 10% fetal Bovine serum (FBS, Sigma, St. Louis, Mo.) and supplemented with 0.2 mg/mL Geneticin (Invitrogen, Carlsbad, Calif.). • Virus-Single-round infectious reporter virus was produced by co-transfecting human embryonic Kidney 293 cells with an HIV-1 envelope DNA expression vector and a proviral cDNA containing an envelope deletion mutation and the luciferase reporter gene inserted in place of HIV-1 nef sequences (Chen et al, Ref. 41). Transfections were performed using lipofectAMINE PLUS reagent as described by the manufacturer (Invitrogen, Carlsbad, Calif.). Experiment: • HeLa CD4 cells were plated in 96 well plates at a cell density of 1×10^4 cells per well in 100 μl Dulbecco's Modified Eagle Medium containing 10% fetal Bovine serum and incubated overnight. • Compound was added in a 2 μl dimethylsulfoxide solution, so that the final assay concentration would be ≦10 μM. • 100 μl of single-round infectious reporter virus in Dulbecco's Modified Eagle Medium was then added to the plated cells and compound at an approximate multiplicity of infection (MOI) of 0.01, resulting in a final volume of 200 μl per well. • Virally-infected cells were incubated at 37 degrees Celsius, in a CO2 incubator, and harvested 72 h after infection. • Viral infection was monitored by measuring luciferase expression from viral DNA in the infected cells using a luciferase reporter gene assay kit, as described by the manufacturer (Roche Molecular Biochemicals, Indianapolis, Ind.). Infected cell supernatants were removed and 50 μl of lysis buffer was added per well. After 15 minutes, 50 μl of freshly-reconstituted luciferase assay reagent was added per well. Luciferase activity was then quantified by measuring luminescence using a Wallac microbeta scintillation counter. • The percent inhibition for each compound was calculated by quantifying the level of luciferase expression in cells infected in the presence of each compound as a percentage of that observed for cells infected in the absence of compound and subtracting such a determined value from 100. • An EC50 provides a method for comparing the antiviral potency of the compounds of this disclosure. The effective concentration for fifty percent inhibition (EC50) was calculated with the Microsoft Excel Xlfit curve fitting software. For each compound, curves were generated from percent inhibition calculated at 10 different concentrations by using a four paramenter logistic model (model 205). Table 1 is the key for the data in Table 2.

Compound | EC50 [nM]
CC(Oc1cccc2ncccc12)C(=O)N1CCC(=C(C#N)c2ccccc2)CC1 (centres unmarked) | < 1000
CC(Oc1cccc2ncccc12)C(=O)N1CCC(=C(C#N)c2ccccc2)CC1C (centres unmarked) | < 1000
CC(Oc1cccc2ncccc12)C(=O)N1CCC(=C(c2ccccc2)c2ccccc2)CC1 (centres unmarked) | > 1000
CC(Oc1cccc2ncccc12)C(=O)N1CCC(=C(c2ccccc2)c2cccnc2)CC1 (centres unmarked) | > 1000
Cc1nnc(C(=C2CCN(C(=O)C(C)Oc3cccc4ncccc34)CC2)c2ccccc2)o1 (centres unmarked) | > 1000
COC(=O)c1ccc(OC(C)C(=O)N2CCC(=C(C#N)c3ccccc3)CC2)c(OC)c1 (centres unmarked) | < 1000
COC(=O)c1ccc(OC(C)C(=O)N2CCC(=C(C#N)c3ccccc3)CC2C)c(OC)c1 (centres unmarked) | < 1000
COC(=O)c1ccc(OC(C)C(=O)N2CCC(=C(c3ccccc3)c3ccccc3)CC2)c(OC)c1 (centres unmarked) | < 1000
COC(=O)c1ccc(OC(C)C(=O)N2CCC(=C(c3ccccc3)c3cccnc3)CC2)c(OC)c1 (centres unmarked) | > 1000
COC(=O)c1ccc(OC(C)C(=O)N2CCC(=C(c3ccccc3)c3nnc(C)o3)CC2)c(OC)c1 (centres unmarked) | < 1000
CC(Oc1cccc2cccnc12)C(=O)N1CCC(=C(C#N)c2ccccc2)CC1 (centres unmarked) | < 1000
